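All cell lines were grown in 96-well plates and treated with compound for 48 hours. The concentration for 50% growth inhibition is given as GI50. At the TGI there is no net growth.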
Assays:
Experiment in all cases: NCI-60 cell line screen, 48 h
TK-10 renal = system: TK-10 renal
CAKI-1 renal = system: CAKI-1 renal
ACHN renal = system: ACHN renal
UACC-62 melanoma = system: UACC-62 melanoma
SK-MEL-28 melanoma = system: SK-MEL-28 melanoma
HCT-116 colon = system: HCT-116 colon
OVCAR-5 ovarian = system: OVCAR-5 ovarian
OVCAR-4 ovarian = system: OVCAR-4 ovarian
HCC-2998 colon = system: HCC-2998 colon
PC-3 prostate = system: PC-3 prostate
A549 NSCLC = system: A549 NSCLC
SN12C renal = system: SN12C renal
786-0 renal = system: 786-0 renal
MDA-MB-231 breast = system: MDA-MB-231 breast
BT-549 breast = system: BT-549 breast
HCT-15 colon = system: HCT-15 colon
SF-268 CNS = system: SF-268 CNS
SW-620 colon = system: SW-620 colon
UACC-257 melanoma = system: UACC-257 melanoma
T-47D breast = system: T-47D breast
RXF 393 renal = system: RXF 393 renal
RPMI-8226 leukemia = system: RPMI-8226 leukemia
SF-295 CNS = system: SF-295 CNS
SK-MEL-5 melanoma = system: SK-MEL-5 melanoma
SK-MEL-2 melanoma = system: SK-MEL-2 melanoma
HT29 colon = system: HT29 colon
SNB-75 CNS = system: SNB-75 CNS
KM12 colon = system: KM12 colon
EKVX NSCLC = system: EKVX NSCLC
DU-145 prostate = system: DU-145 prostate
NCI-H226 lung = system: NCI-H226 lung
NCI-H522 lung = system: NCI-H522 lung
SK-OV-3 ovarian = system: SK-OV-3 ovarian
NCI/ADR-RES ovarian = system: NCI/ADR-RES ovarian
M14 melanoma = system: M14 melanoma
A498 renal = system: A498 renal
MDA-MB-435 = system: MDA-MB-435
UO-31 renal = system: UO-31 renal
OVCAR-3 ovarian = system: OVCAR-3 ovarian
MCF7 breast = system: MCF7 breast
NCI-H23 lung = system: NCI-H23 lung
NCI-H460 lung = system: NCI-H460 lung
U251 CNS = system: U251 CNS
HS 578T breast = system: HS 578T breast
HOP-92 NSCLC = system: HOP-92 NSCLC

`CN1CCN(CCCOc2ccc3nc(Nc4cc(Cl)cc(Cl)c4)ccc3c2)CC1` gave a GI50 (TK-10 renal) of 2330 nM, a TGI (TK-10 renal) of 3920 nM and a GI50 (CAKI-1 renal) of 1820 nM. The TGI (CAKI-1 renal) was 3720 nM, the GI50 (ACHN renal) was 1510 nM and the TGI (ACHN renal) was 2900 nM. It also gave a GI50 (UACC-62 melanoma) of 1810 nM, a TGI (UACC-62 melanoma) of 3760 nM and a GI50 (SK-MEL-28 melanoma) of 1630 nM. For the same compound, the TGI (SK-MEL-28 melanoma) was 3210 nM, the GI50 (HCT-116 colon) was 1580 nM and the TGI (HCT-116 colon) was 2980 nM. For the same compound, the GI50 (OVCAR-5 ovarian) was 1710 nM, the TGI (OVCAR-5 ovarian) was 3350 nM and the GI50 (OVCAR-4 ovarian) was 1790 nM. For the same compound, the TGI (OVCAR-4 ovarian) was 5650 nM, the GI50 (HCC-2998 colon) was 1540 nM and the TGI (HCC-2998 colon) was 3060 nM. For the same compound, the GI50 (PC-3 prostate) was 1930 nM, the TGI (PC-3 prostate) was 3710 nM and the GI50 (A549 NSCLC) was 2110 nM. It also gave a TGI (A549 NSCLC) of 3800 nM, a GI50 (SN12C renal) of 1810 nM and a TGI (SN12C renal) of 3770 nM. The GI50 (786-0 renal) was 1580 nM, the TGI (786-0 renal) was 3080 nM and the GI50 (MDA-MB-231 breast) was 1560 nM. It also gave a TGI (MDA-MB-231 breast) of 3310 nM, a GI50 (BT-549 breast) of 1900 nM and a TGI (BT-549 breast) of 3580 nM. The GI50 (HCT-15 colon) was 677 nM, the TGI (HCT-15 colon) was 2110 nM and the GI50 (SF-268 CNS) was 1480 nM. It also gave a TGI (SF-268 CNS) of 3020 nM, a GI50 (SW-620 colon) of 1680 nM and a TGI (SW-620 colon) of 3460 nM. It also gave a GI50 (UACC-257 melanoma) of 2130 nM, a TGI (UACC-257 melanoma) of 3850 nM and a GI50 (T-47D breast) of 1990 nM. For the same compound, the TGI (T-47D breast) was 4390 nM, the GI50 (RXF 393 renal) was 1330 nM and the TGI (RXF 393 renal) was 2930 nM. For the same compound, the GI50 (RPMI-8226 leukemia) was 2160 nM, the TGI (RPMI-8226 leukemia) was 4780 nM and the GI50 (SF-295 CNS) was 1410 nM. The TGI (SF-295 CNS) was 2890 nM, the GI50 (SK-MEL-5 melanoma) was 1760 nM and the TGI (SK-MEL-5 melanoma) was 3310 nM. It also gave a GI50 (SK-MEL-2 melanoma) of 2030 nM, a TGI (SK-MEL-2 melanoma) of 4040 nM and a GI50 (HT29 colon) of 548 nM. The TGI (HT29 colon) was 1840 nM, the GI50 (SNB-75 CNS) was 1110 nM and the TGI (SNB-75 CNS) was 2560 nM. It also gave a GI50 (KM12 colon) of 1530 nM, a TGI (KM12 colon) of 2990 nM and a GI50 (EKVX NSCLC) of 1630 nM. It also gave a TGI (EKVX NSCLC) of 3380 nM, a GI50 (DU-145 prostate) of 1570 nM and a TGI (DU-145 prostate) of 3070 nM. It also gave a GI50 (NCI-H226 lung) of 2140 nM, a TGI (NCI-H226 lung) of 5680 nM and a GI50 (NCI-H522 lung) of 2060 nM. The TGI (NCI-H522 lung) was 3740 nM, the GI50 (SK-OV-3 ovarian) was 2000 nM and the TGI (SK-OV-3 ovarian) was 3690 nM. It also gave a GI50 (NCI/ADR-RES ovarian) of 1990 nM, a TGI (NCI/ADR-RES ovarian) of 5780 nM and a GI50 (M14 melanoma) of 1500 nM. The TGI (M14 melanoma) was 3080 nM, the GI50 (A498 renal) was 1800 nM and the TGI (A498 renal) was 3220 nM. The GI50 (MDA-MB-435) was 1500 nM, the TGI (MDA-MB-435) was 2940 nM and the GI50 (UO-31 renal) was 1580 nM. It also gave a TGI (UO-31 renal) of 3240 nM, a GI50 (OVCAR-3 ovarian) of 1560 nM and a TGI (OVCAR-3 ovarian) of 3220 nM. It also gave a GI50 (MCF7 breast) of 1480 nM, a TGI (MCF7 breast) of 3050 nM and a GI50 (NCI-H23 lung) of 1630 nM. It also gave a TGI (NCI-H23 lung) of 3540 nM, a GI50 (NCI-H460 lung) of 1540 nM and a TGI (NCI-H460 lung) of 3180 nM. It also gave a GI50 (U251 CNS) of 1610 nM, a TGI (U251 CNS) of 3130 nM and a GI50 (HS 578T breast) of 1870 nM. The TGI (HS 578T breast) was 5240 nM, the GI50 (HOP-92 NSCLC) was 1460 nM and the TGI (HOP-92 NSCLC) was 3200 nM.
